Reference: patent publication US20100056601A1, “Control agent containing N-Substituted indole derivative for acarian parasitic on animal” (Nippon Kayaku Kabushiki Kaisha, priority 2004, published 2010)
Like-named read-outs stand apart in the source and are kept apart here.

How the values were obtained:
[1] = tested on: two-spotted spider mite (Tetranychus urticae); assay: Comparative test: insecticidal effect on two-spotted spider mite, leaf immersion (Test Example 5); assay type: in vivo; conditions: for insecticidal activity against the two-spotted spider mites (in words): 200 ppm, 2 days after immersion; for mortality at 200 ppm: Tetranychus urticae, in Phaseolus vulgaris, 48 h, read-out: Mortality after 2 days (%)
Procedure: Twenty adult female two-spotted spider mites were released on the leaves of a potted kidney bean plant. One day after the release, the kidney bean leaves were immersed for several seconds in a chemical solution obtained by diluting a 20% emulsion of each compound with tap water to a concentration of 200 ppm. After air-dryness, the leaves were placed in a room thermostated at 25° C. Two days after the immersion, whether the adult two-spotted spider mites on the leaves were alive or dead were judged and the dead and alive were counted. The mortality was calculated.

std:ddy strain male mice = assay: Toxicity to mouse, administration into the stomach (Test Example 3); assay type: in vivo; conditions: into the stomach in olive oil
Procedure: The compound listed in Table 1 or Fipronil was dissolved in olive oil to a predetermined concentration, and the resulting solution was directly administered into the stomachs of std:ddy strain male mice by the use of a probe. The dose was 30 mg/kg or 100 mg/kg. Whether the mice were alive or dead was observed 3 hours, 1 day, 7 days and 14 days after the administration.

[2] = tested on: hatched larvae of Haemaphysalis longicornis; assay: In vitro control effect on acarians, treated Pasteur's pipette test (Test Example 1); assay type: in vivo
Procedure: Neoglamine was added to the emulsion of Example 1 in an amount of 0.01% and the resulting mixture was diluted with tap water to each concentration shown in Table 2. After a commercial 0.5×15 cm Pasteur's pipette was immersed in the dilution for 30 seconds, it was vertically stood on cotton and air-dried. The head of the air-dried Pasteur's pipette was plugged with cotton, and 10 hatched larvae of Haemaphysalis longicornis were sucked from the cotton-plugged end side by the use of a suction pump and then the other end was sealed with putty. After the suction, the pipette was allowed to stand in a desiccator containing a saturated aqueous disodium hydrogenphosphate solution and maintained at 23° C. Observation was carried out after 2 days and after 4 days. Fipronil was used as a positive control.

[3] = tested on: hatched larvae of Haemaphysalis longicornis; assay: In vivo control effect on ticks on rabbit ears, spot-on treatment (Test Example 2)
Procedure: About 40 hatched larvae of Haemaphysalis longicornis were inoculated on the ears of a rabbit by the use of a cloth bag, made parasitic on the rabbit and allowed to suck the blood. After 24 hours, the cloth bag was taken off and ticks sucking the blood were counted. […] The left ear was not treated. Three hours, 1 day and 2 days after the spot-on treatment, the living ticks on each of the right and left ears were counted. As a control animal, there was used a rabbit whose right ear had been treated with only the base ingredient for preparation for spot-on treatment and whose left ear had been not treated.

cat = assay: Administration to a cat, spot-on dropping, clinical symptom (Test Example 4); conditions: for Clinical symptom: 0.5 ml spot-on
From the text: After the dropping, the clinical symptom of the cat was observed.

[4] = Haemaphysalis longicornis, 48 h, read-out: Mortality after 2 days
[5] = Haemaphysalis longicornis, 96 h, read-out: Mortality after 4 days
[6] = left ear (not treated), right ear spot-on 0.1 ml of 20% solution
[7] = right ear (treated), spot-on 0.1 ml of 20% solution

SMILES | insecticidal activity against the two-spotted spider mites (in words) [1] | mortality at 200 ppm [1] | Cumulative mortality after 3 hours (std:ddy strain male mice; 30 mg/kg) | Cumulative mortality after 1 day (std:ddy strain male mice; 30 mg/kg) | Cumulative mortality after 7 days (std:ddy strain male mice; 30 mg/kg) | Cumulative mortality after 14 days (std:ddy strain male mice; 30 mg/kg) | Cumulative mortality after 3 hours (std:ddy strain male mice; 100 mg/kg) | Cumulative mortality after 1 day (std:ddy strain male mice; 100 mg/kg) | Cumulative mortality after 7 days (std:ddy strain male mice; 100 mg/kg) | Cumulative mortality after 14 days (std:ddy strain male mice; 100 mg/kg) | mortality at 0.1 ppm [2, 4] | mortality at 1 ppm [2, 4] | mortality at 10 ppm [2, 4] | mortality at 1 ppm [2, 5] | mortality at 10 ppm [2, 5] | further results
FC(F)(F)Sc1cn(-c2c(Cl)cc(C(F)(F)F)cc2Cl)c2ccccc12 [Compound 25, 1-(2,6-dichloro-4-trifluoromethylphenyl)-3-(trifluoromethylthio)indole] | no insecticidal activity | 0% | 0/5 | 0/5 | 0/5 | 0/5 | 0/5 | 0/5 | 0/5 | 0/5 | 100% | 100% | 100% | 100% | 100% | mortality at 0.01 ppm [2, 4]: 30%; mortality at 0.01 ppm [2, 5]: 60%
FC(Cl)(Cl)Sc1cn(-c2c(Cl)cc(C(F)(F)F)cc2Cl)c2ccccc12 [Compound 17, 1-(2,6-dichloro-4-trifluoromethylphenyl)-3-(dichlorofluoromethylthio)indole] | no insecticidal activity | 0% | 0/5 | 0/5 | 0/5 | 0/5 | 0/5 | 0/5 | 0/5 | 0/5 | 0% | 20% | 100% | 80% | 100% | mortality at 0.1 ppm [2, 5]: 0%; extermination of ticks on the treated right ear (in words) ([3]; in 3 hours after the treatment): quickly exterminated ticks on the right ear; extermination of ticks on the untreated left ear (in words) ([3]; in 1 day after the treatment): also exterminated ticks on the left ear; Number of living ticks, before dropping ([3]; left ear (not treated), baseline before spot-on on right ear): 15; Number of living ticks, after 3 hours [3, 6]: 15; Number of living ticks, after 1 day [3, 6]: 0; Number of living ticks, after 2 days [3, 6]: 0; Number of living ticks, before dropping ([3]; right ear (treated ear), baseline before spot-on of 0.1 ml 20% solution): 15; Number of living ticks, after 3 hours [3, 7]: 3; Number of living ticks, after 1 day [3, 7]: 1; Number of living ticks, after 2 days [3, 7]: 0; Clinical symptom (cat; cat, dropping concentration 10%): No sign was recognized; Clinical symptom (cat; cat, dropping concentration 20%): No sign was recognized; Clinical symptom (cat; cat, dropping concentration 30%): No sign was recognized; abnormal sign due to the spot-on dropping (cat; cat, 10, 20 or 30% liquid drops): no abnormal sign; toxicity to cat (in words) (cat; cat, spot-on 10, 20 or 30% liquid drops): only low toxicity
N#Cc1nn(-c2c(Cl)cc(C(F)(F)F)cc2Cl)c(N)c1[S+]([O-])C(F)(F)F (centres unmarked) [Fipronil, 5-amino-1-(2,6-dichloro-4-(trifluoromethyl)phenyl)-4-((trifluoromethyl)sulfinyl)-1H-pyrazole-3-carbonitrile, reference compound] | – | – | 0/5 | 1/5 | 1/5 | 1/5 | 1/5 | 5/5 | 5/5 | 5/5 | – | – | – | – | – | mortality at 0.1 ppm ([2]; 48 h, 0.1 ppm, Haemaphysalis longicornis larvae, 23° C., read-out: Mortality after 2 days): 30%; mortality at 1 ppm ([2]; 48 h, 1 ppm, Haemaphysalis longicornis larvae, 23° C., read-out: Mortality after 2 days): 100%; mortality at 10 ppm ([2]; 48 h, 10 ppm, Haemaphysalis longicornis larvae, 23° C., read-out: Mortality after 2 days): 100%; mortality at 0.1 ppm ([2]; 96 h, 0.1 ppm, Haemaphysalis longicornis larvae, 23° C., read-out: Mortality after 4 days): 60%; mortality at 1 ppm ([2]; 96 h, 1 ppm, Haemaphysalis longicornis larvae, 23° C., read-out: Mortality after 4 days): 100%; mortality at 10 ppm ([2]; 96 h, 10 ppm, Haemaphysalis longicornis larvae, 23° C., read-out: Mortality after 4 days): 100%
